Experimental data: patent US8415379B2, “Pyridines” (Hoffmann-La Roche Inc., priority 2009, dated 2013)

Each molecule was assayed against T1, GABA A α5 (human receptors of composition α5β3γ2) (Homo sapiens, UniProt P18507+P31644) (assay: [3H]flumazenil competition binding assay, human GABA A α5β3γ2 receptors in HEK293 cells). Settings: displacement of 0.5 nM [3H]flumazenil, HEK293 membranes, 1 hour at 4° C., means of two determinations, read-out: hKi GABA A α5.
T1 construct: expressed in transfected cells; host or cells: HEK293 cells, transiently transfected; membrane homogenates used
Procedure: The affinity of compounds at GABA A receptor subtypes was measured by competition for [^3H]flumazenil (85 Ci/mmol; Roche) binding to HEK293 cells expressing rat (stably transfected) or human (transiently transfected) receptors of composition α1β3γ2, α2β3γ2, α3β3γ2 and α5β3γ2.
Cell pellets were suspended in Krebs-tris buffer (4.8 mM KCl, 1.2 mM CaCl2, 1.2 mM MgCl2, 120 mM NaCl, 15 mM Tris; pH 7.5; binding assay buffer), homogenized by polytron for ca. 20 sec on ice and centrifuged for 60 min at 4° C. (50000 g; Sorvall, rotor: SM24=20000 rpm). The cell pellets were re-suspended in Krebs-tris buffer and homogenized by polytron for ca. 15 sec on ice. Protein was measured (Bradford method, Bio-Rad) and aliquots of 1 mL were prepared and stored at −80° C.
Radioligand binding assays were carried out in a volume of […] (96-well plates) which contained […] of cell membranes, [^3H]flumazenil at a concentration of 1 nM for α1, α2 and α3 subunits and 0.5 nM for α5 subunits and the test compound in the range of […]. Nonspecific binding was defined by 10^−5 M diazepam and typically represented less than 5% of the total binding. Assays were incubated to equilibrium for 1 hour at 4° C. and harvested onto GF/C uni-filters (Packard) by filtration using a Packard harvester and washing with ice-cold wash buffer (50 mM Tris; pH 7.5). After drying, filter-retained radioactivity was detected by liquid scintillation counting. Ki values were calculated using Excel-Fit (Microsoft) and are the means of two determinations.

SMILES | Ki [nM]
Cc1onc(-c2ccc(F)cn2)c1COc1ccc(C(=O)NCC(F)(F)F)nc1 [Example 28, 5-[3-(5-Fluoro-pyridin-2-yl)-5-methyl-isoxazol-4-ylmethoxy]-pyridine-2-carboxylic acid (2,2,2-trifluoro-ethyl)-amide] | 4.2
O=C(NC1CC1)c1ccc(OCc2c(-c3ccc(F)cc3)noc2CO)cn1 [Example 31, 5-[3-(4-Fluoro-phenyl)-5-hydroxymethyl-isoxazol-4-ylmethoxy]-pyridine-2-carboxylic acid cyclopropylamide] | 23.3
CC(NC(=O)c1ccc(OCc2c(-c3ccc(F)cc3)noc2CO)cn1)C(F)(F)F (stereo not drawn) [Example 32, 5-[3-(4-Fluoro-phenyl)-5-hydroxymethyl-isoxazol-4-ylmethoxy]-pyridine-2-carboxylic acid (2,2,2-trifluoro-1-methyl-ethyl)-amide] | 60.4
CC[C@@H](CO)NC(=O)c1ccc(OCc2c(-c3ccc(F)cc3)noc2CO)cn1 [Example 34, 5-[3-(4-Fluoro-phenyl)-5-hydroxymethyl-isoxazol-4-ylmethoxy]-pyridine-2-carboxylic acid ((S)-1-hydroxymethyl-propyl)-amide] | 8.3
CC(C)(C)NC(=O)c1ccc(OCc2c(-c3ccc(F)cc3)noc2CO)cn1 [Example 36, 5-[3-(4-Fluoro-phenyl)-5-hydroxymethyl-isoxazol-4-ylmethoxy]-pyridine-2-carboxylic acid tert-butylamide] | 74.2
O=C(NN1CCCC1)c1ccc(OCc2c(-c3ccc(F)cc3)noc2CO)cn1 [Example 38, 5-[3-(4-Fluoro-phenyl)-5-hydroxymethyl-isoxazol-4-ylmethoxy]-pyridine-2-carboxylic acid pyrrolidin-1-ylamide] | 3.4

The next lines start with the values.

Ki [nM] | SMILES
70.2 | CC(C)NC(=O)c1ccc(OCc2c(-c3ccc(F)cc3)noc2CO)cn1 [Example 29, 5-[3-(4-Fluoro-phenyl)-5-hydroxymethyl-isoxazol-4-ylmethoxy]-pyridine-2-carboxylic acid isopropylamide]
30.3 | O=C(NC1CCOCC1)c1ccc(OCc2c(-c3ccc(F)cc3)noc2CO)cn1 [Example 30, 5-[3-(4-Fluoro-phenyl)-5-hydroxymethyl-isoxazol-4-ylmethoxy]-pyridine-2-carboxylic acid (tetrahydro-pyran-4-yl)-amide]
10.2 | O=C(NCC(F)(F)F)c1ccc(OCc2c(-c3ccc(F)cc3)noc2CO)cn1 [Example 33, 5-[3-(4-Fluoro-phenyl)-5-hydroxymethyl-isoxazol-4-ylmethoxy]-pyridine-2-carboxylic acid (2,2,2-trifluoro-ethyl)-amide]
3.4 | Cn1cc(NC(=O)c2ccc(OCc3c(-c4ccc(F)cc4)noc3CO)cn2)cn1 [Example 35, 5-[3-(4-Fluoro-phenyl)-5-hydroxymethyl-isoxazol-4-ylmethoxy]-pyridine-2-carboxylic acid (1-methyl-1H-pyrazol-4-yl)-amide]
10.2 | O=C(c1ccc(OCc2c(-c3ccc(F)cc3)noc2CO)cn1)N1CCC(F)(F)CC1 [Example 37, (4,4-Difluoro-piperidin-1-yl)-{5-[3-(4-fluoro-phenyl)-5-hydroxymethyl-isoxazol-4-ylmethoxy]-pyridin-2-yl}-methanone]
0.8 | O=C(NN1CCOCC1)c1ccc(OCc2c(-c3ccc(F)cc3)noc2CO)cn1 [Example 39, 5-[3-(4-Fluoro-phenyl)-5-hydroxymethyl-isoxazol-4-ylmethoxy]-pyridine-2-carboxylic acid morpholin-4-ylamide]
